Assay: molar heat capacity at constant pressure
Conditions: 101.33 kPa, Liquid, Small sample (50 mg) DSC

OCCO [1,2-ethanediol]
Conditions	molar heat capacity at constant pressure [J/K/mol]
293.15 K	148.1
294.65 K	148.57
296.15 K	149.05
297.65 K	149.53
298.15 K	149.69
299.15 K	150.01
300.65 K	150.48
302.15 K	150.96
303.65 K	151.44
305.15 K	151.92
306.65 K	152.4
308.15 K	152.88
309.65 K	153.36
311.15 K	153.83
312.65 K	154.31
314.15 K	154.79
315.65 K	155.27
317.15 K	155.75
318.65 K	156.23
320.15 K	156.71
321.65 K	157.19
323.15 K	157.67
324.65 K	158.15
326.15 K	158.63
327.65 K	159.11
329.15 K	159.6
330.65 K	160.08
332.15 K	160.56
333.65 K	161.04
335.15 K	161.52
336.65 K	162
338.15 K	162.49
339.65 K	162.97
341.15 K	163.45
342.65 K	163.93
344.15 K	164.42
345.65 K	164.9
347.15 K	165.38
348.65 K	165.86
350.15 K	166.35
351.65 K	166.83
353.15 K	167.32

OCCCCO [1,4-butanediol]
Conditions	molar heat capacity at constant pressure [J/K/mol]
293.15 K	200.51
294.65 K	201.33
296.15 K	202.16
297.65 K	202.99
298.15 K	203.27
299.15 K	203.82
300.65 K	204.67
302.15 K	205.51
303.65 K	206.36
305.15 K	207.22
306.65 K	208.08
308.15 K	208.95
309.65 K	209.82
311.15 K	210.7
312.65 K	211.58
314.15 K	212.47
315.65 K	213.36
317.15 K	214.26
318.65 K	215.17
320.15 K	216.08
321.65 K	216.99
323.15 K	217.91
324.65 K	218.83
326.15 K	219.76
327.65 K	220.7
329.15 K	221.64
330.65 K	222.58
332.15 K	223.53
333.65 K	224.49
335.15 K	225.45
336.65 K	226.41
338.15 K	227.38
339.65 K	228.36
341.15 K	229.34
342.65 K	230.33
344.15 K	231.32
345.65 K	232.32
347.15 K	233.32
348.65 K	234.32
350.15 K	235.34
351.65 K	236.35
353.15 K	237.38

OCCCCCO [1,5-pentanediol]
Conditions	molar heat capacity at constant pressure [J/K/mol]
293.15 K	229.04
294.65 K	230.06
296.15 K	231.1
297.65 K	232.14
298.15 K	232.49
299.15 K	233.19
300.65 K	234.25
302.15 K	235.31
303.65 K	236.39
305.15 K	237.47
306.65 K	238.56
308.15 K	239.66
309.65 K	240.77
311.15 K	241.89
312.65 K	243.01
314.15 K	244.14
315.65 K	245.28
317.15 K	246.43
318.65 K	247.59
320.15 K	248.76
321.65 K	249.93
323.15 K	251.11
324.65 K	252.3
326.15 K	253.5
327.65 K	254.7
329.15 K	255.92
330.65 K	257.14
332.15 K	258.37
333.65 K	259.61
335.15 K	260.86
336.65 K	262.11
338.15 K	263.38
339.65 K	264.65
341.15 K	265.93
342.65 K	267.22
344.15 K	268.51
345.65 K	269.82
347.15 K	271.13
348.65 K	272.45
350.15 K	273.78
351.65 K	275.12
353.15 K	276.46

OCCCCCCO [1,6-hexanediol]
Conditions	molar heat capacity at constant pressure [J/K/mol]
318.65 K	282.66
320.15 K	284.25
321.65 K	285.84
323.15 K	287.42
324.65 K	288.99
326.15 K	290.55
327.65 K	292.12
329.15 K	293.67
330.65 K	295.22
332.15 K	296.76
333.65 K	298.3
335.15 K	299.83
336.65 K	301.36
338.15 K	302.88
339.65 K	304.4
341.15 K	305.91
342.65 K	307.41
344.15 K	308.91
345.65 K	310.4
347.15 K	311.88
348.65 K	313.36
350.15 K	314.84
351.65 K	316.31
353.15 K	317.77

OCCCCCCCO [1,7-heptanediol]
Conditions	molar heat capacity at constant pressure [J/K/mol]
293.15 K	292.06
294.65 K	293.4
296.15 K	294.75
297.65 K	296.11
299.15 K	297.48
300.65 K	298.87
302.15 K	300.26
303.65 K	301.67
305.15 K	303.09
306.65 K	304.51
308.15 K	305.95
309.65 K	307.41
311.15 K	308.87
312.65 K	310.34
314.15 K	311.83
315.65 K	313.33
317.15 K	314.83
318.65 K	316.35
320.15 K	317.88
321.65 K	319.43
323.15 K	320.98
324.65 K	322.54
326.15 K	324.12
327.65 K	325.71
329.15 K	327.31
330.65 K	328
332.15 K	330.54
333.65 K	332.17
335.15 K	333.81
336.65 K	335.47
338.15 K	337.13
339.65 K	338.81
341.15 K	340.5
342.65 K	342.2
344.15 K	343.91
345.65 K	345.63
347.15 K	347.37
348.65 K	349.11
350.15 K	350.87
351.65 K	352.64
353.15 K	354.42

OCCCCCCCCO [1,8-octanediol]
Conditions	molar heat capacity at constant pressure [J/K/mol]
333.65 K	371.35
335.15 K	373.24
336.65 K	375.13
338.15 K	377.03
339.65 K	378.93
341.15 K	380.83
342.65 K	382.74
344.15 K	384.65
345.65 K	386.56
347.15 K	388.48
348.65 K	390.4
350.15 K	392.32
351.65 K	394.24
353.15 K	396.17

OCCCCCCCCCO [1,9-nonanediol]
Conditions	molar heat capacity at constant pressure [J/K/mol]
318.65 K	389.02
320.15 K	391.15
321.65 K	393.27
323.15 K	395.39
324.65 K	397.51
326.15 K	399.62
327.65 K	401.73
329.15 K	403.84
330.65 K	405.94
332.15 K	408.03
333.65 K	410.12
335.15 K	412.21
336.65 K	414.3
338.15 K	416.38
339.65 K	418.45
341.15 K	420.52
342.65 K	422.59
344.15 K	424.66
345.65 K	426.72
347.15 K	428.77
348.65 K	430.82
350.15 K	432.87
351.65 K	434.92
353.15 K	436.95

OCCCO [propan-1,3-diol]
Conditions	molar heat capacity at constant pressure [J/K/mol]
293.15 K	173.4
294.65 K	174.11
296.15 K	174.83
297.65 K	175.54
298.15 K	175.78
299.15 K	176.26
300.65 K	176.98
302.15 K	177.7
303.65 K	178.42
305.15 K	179.15
306.65 K	179.87
308.15 K	180.59
309.65 K	181.32
311.15 K	182.05
312.65 K	182.78
314.15 K	183.51
315.65 K	184.24
317.15 K	184.97
318.65 K	185.7
320.15 K	186.44
321.65 K	187.17
323.15 K	187.91
324.65 K	188.65
326.15 K	189.38
327.65 K	190.12
329.15 K	190.87
330.65 K	191.61
332.15 K	192.35
333.65 K	193.1
335.15 K	193.84
336.65 K	194.59
338.15 K	195.34
339.65 K	196.09
341.15 K	196.84
342.65 K	197.59
344.15 K	198.34
345.65 K	199.1
347.15 K	199.85
348.65 K	200.61
350.15 K	201.37
351.65 K	202.13
353.15 K	202.89
